Data set [1] is described as follows: Solubility pattern of the isolated compound (qualitative). Type of data set: physicochemical. The following applies: isolated solid.
A short description of data set [2]: Octanol/water partition coefficient, shake-flask method and UV/Vis. The following applies: octanol/water, 21 °C. As for the experimental part: Octanol/water partition coefficients (log Pow ). Partition coefficients (P ow; IUPAC: K D partition constant[53]), defined as P ow=corg/caq, where corg and caq are molar concentrations of the selected compound in the organic and aqueous phase, respectively, were determined by the shake‐flask method and UV/Vis measurements.[[16a], [54]] Deionized water and octan‐1‐ol were vigorously stirred for 24 h, to enable saturation of both phases, then separated by centrifugation. A stock solution of the selected Fe compound (ca. 2 mg) was prepared by first adding acetone (50 μL, to help solubilization), followed by water‐saturated octanol (2.5 mL). The solution was diluted with water‐saturated octanol (ca. 1 : 3 v/v ratio, cFe2 ≈10^−4 M, so that 1.5≤A≤2.0 at λ max) and its UV/Vis spectrum was recorded ( A0/org ). An aliquot of the solution (V org=1.2 mL) was transferred into a test tube and octanol‐saturated water (V org=V aq=1.2 mL) was added. The mixture was vigorously stirred for 30 min at 21 °C then centrifuged (RCF 805, 5 min; Hettich EBA 8G). The UV/Vis spectrum of the organic phase was recorded ( Af/org ) and the partition coefficient was calculated as P ow= Af/org /( A0/org g− Af/org ) where A0/org and Af/org are the absorbance in the organic phase before and after partition with the aqueous phase, respectively.[53] For [2B]BF4, [2C]Cl and [3F]CF3SO3 an inverse procedure was followed, starting from a solution of the compound in octanol‐saturated water. The partition coefficient was calculated as P ow=( A0/aq − Af/aq )/ Af/aq where A0/aq and Af/aq are the absorbance in the aqueous phase before and after partition with the organic phase, respectively.

For data set [3], the system named is 3D cell spheroids of human ovarian (2008) cancer cells. The data set is described as follows: Acid phosphatase (APH) assay, 3D spheroid culture. As to conditions: 2008 spheroids, 72 h, APH test. It counts as cell-based. The text has this:
(§1) The remarkable cell‐killing effect observed in 2D cultured cells prompted us to evaluate the in vitro antitumor activity of the complexes on 3D cell cultures. Differently from 2D monolayer culture, 3D spheroid cell culture systems comprise cancer cells in various cell growth stages. Consequently, the multicellular cancer spheroid model is recognized to better reflect the tumour mass in vivo regarding drug permeation, cell interactions, gene expression, hypoxia and nutrient gradients with respect to monolayer cell cultures, making 3D models more predictive than conventional 2D monolayer cultures in screening antitumor drugs.[38] Table 6 summarizes the IC50 values obtained after treatment of 3D cell spheroids of human ovarian (2008) and pancreatic (PSN‐1) cancer cells with the diiron complexes and cisplatin.
(§2) Spheroid cultures. Spheroid cultures were obtained by seeding 2.5×10^3 cells/well in round bottom non‐tissue culture treated 96 well‐plate (Greiner Bio‐one, Kremsmünster, Austria) in phenol red free RPMI‐1640 medium (Sigma Chemical Co.), containing 10 % FCS and supplemented with 20 % methyl cellulose stock solution.
(§3) Acid phosphatase (APH) assay. An APH modified assay was used for determining cell viability in 3D spheroids, as previously described.[58] IC50 values were calculated with a four‐parameter logistic (4‐PL) model. All the values are the means ± SD of not less than four independent experiments.

Data set [4] relates to 3D cell spheroids of human pancreatic (PSN‐1) cancer cells. The data set is described as follows: Acid phosphatase (APH) assay, 3D spheroid culture. It counts as cell-based. As to conditions: PSN‐1 spheroids, 72 h, APH test.
Excerpt: as §1, §2, §3

The next data set deals with MCF‐7 ADR cells. As to the kind of experiment: MTT assay, multidrug-resistant cancer cell model overexpressing P-gp. It counts as cell-based, human. The following applies: for IC50: MCF‐7 ADR cells, 72 h, MTT; for RF=IC50 (resistant cells)/IC50 (wild‐type cells): MCF‐7 ADR vs MCF‐7, 72 h. As for the experimental part:
The antiproliferative activity was also investigated in a multidrug‐resistant cancer cell model overexpressing P‐gp (MCF‐7 ADR cells).
Compounds [2B]BF4, [2C]CF3SO3, [2D]CF3SO3 and [3F]CF3SO3 were dissolved in water while the other compounds were dissolved in the minimum DMSO amount prior to cell culture testing. A calculated amount of the stock drug DMSO solution was added to the cell culture media to reach a final maximum DMSO concentration of 0.5 %, which had no effects on cell viability.
Cell cultures. Human colon (HCT‐15), pancreatic (PSN‐1) and breast (MCF‐7) carcinoma cell lines along with human melanoma cells (A375) were obtained from American Type Culture Collection (ATCC, Rockville, MD). Embryonic kidney HEK293 cells were obtained from the European Collection of Cell Cultures (ECACC, Salisbury, UK). Human ovarian 2008 cancer cells were kindly provided by Prof. G. Marverti (Dept. of Biomedical Science of Modena University, Italy). MCF‐7 ADR cells were kindly provided by Prof. N. Colabufo (Dept. Pharmacy, University of Bari, Italy). Cell lines were maintained in the logarithmic phase at 37 °C in a 5 % CO2 atmosphere using the following culture media containing 10 % fetal calf serum (Euroclone, Milan, Italy), antibiotics (50 units/mL penicillin and 50 μg/mL streptomycin) and 2 mM L‐glutamine: i) RPMI‐1640 medium (Euroclone, Milan, Italy) for PSN‐1, 2008, HCT‐15, MCF‐7 and MCF‐7 ADR cells; ii) DMEM for A375 and HEK293 cells.
MTT assay. The growth inhibitory effect towards tumour cells was evaluated by means of MTT assay as previously described.[57] Briefly, 3–8×10^3 cells/well, dependent upon the growth characteristics of the cell line, were seeded in 96‐well microplates in growth medium (100 μL). After 24 h, the medium was removed and replaced with a fresh one containing the compound to be studied at the appropriate concentration. Triplicate cultures were established for each treatment. After 24 or 72 h, each well was treated with 10 μL of a 5 mg/mL MTT saline solution, and following 5 h of incubation, 100 μL of a sodium dodecyl sulfate (SDS) solution in HCl 0.01 M were added. After an overnight incubation, cell growth inhibition was detected by measuring the absorbance of each well at 570 nm using a Bio‐Rad 680 microplate reader. Mean absorbance for each drug dose was expressed as a percentage of the control untreated well absorbance and plotted against drug concentration. IC50 values, the drug concentrations that reduce the mean absorbance at 570 nm to 50 % of those in the untreated control wells, were calculated by the four‐parameter logistic (4‐PL) model. Evaluation was based on means from at least four independent experiments.
A general note: Tetrazolium dyes change colour on reduction, which living cells bring about.

On to “[Fe2Cp2(CO)2(μ‐CO){μ‐CNBn2}]X [[5H]CF3SO3]”, for which the “Solubility in water (qualitative)” value in data set [1] is on record as “poorly soluble”. Moreover, the “Log P ow” value in data set [2] was 0.2±0.02; in data set [2] (listed as [5H]^+), “≈ 0”. The 50% inhibitory concentration (IC50) in data set [3] was 73.2 ± 6.2 µM; in data set [4] it was 86.2 ± 6.4 µM; in the data set on MCF‐7 ADR cells it was 44.7 ± 6.1 µM. The “RF=IC50 (resistant cells)/IC50 (wild‐type cells)” value (from here on “RF=IC50 (resistant cells)/IC50”) with MCF‐7 ADR cells was 1.2.
Consider “[Fe2Cp2(CO)2(μ‐CO){μ‐CNEt(2‐naphthyl)}]BF4 [[4G]BF4]”, for which the “Solubility in water (qualitative)” value in data set [1] is “insoluble”. The “Log P ow” value in data set [2] is 0.1±0.1; in data set [2] (listed as [4G]^+), “≈ 0”. Moreover, the IC50 in data set [3] is 58.9 ± 4.8 µM; in data set [4], 77.4 ± 8.4 µM; in the data set on MCF‐7 ADR cells, 26.9 ± 5.1 µM. For the same substance, in the data set with MCF‐7 ADR cells, the “RF=IC50 (resistant cells)/IC50” value was 1.3.
For the substance “[Fe2Cp2(CO)2(μ‐CO){μ‐CNMe(1H‐indol‐6‐yl)}]CF3SO3 [[2A]CF3SO3]”, the “Solubility in water (qualitative)” value in data set [1] is “insoluble”. For the same substance, the “Log P ow” value is reported as 0.0±0.1 in data set [2] and “≈ 0” in data set [2] (listed as [2A]^+). For the same substance, the 50% inhibitory concentration (IC50) in data set [3] was more than 100 µM; in data set [4], more than 100 µM; with MCF‐7 ADR cells it was 84.5 ± 8.5 µM. Besides, the “RF=IC50 (resistant cells)/IC50” value with MCF‐7 ADR cells stood at 1.3.
For the substance “[Fe2Cp2(CO)2(μ‐CO){μ‐CNMe(4‐C6H4OMe)}]CF3SO3 [[2D]CF3SO3]”, the “Solubility in water (qualitative)” value in data set [1] is “soluble”. Besides, in data set [2], the “Log P ow” value is on record as −0.25±0.04. The IC50 in data set [3] is 42.8 ± 4.2 µM; in data set [4] it was 53.7 ± 6.1 µM; with MCF‐7 ADR cells, 22.6 ± 4.2 µM. Further, the “RF=IC50 (resistant cells)/IC50” value with MCF‐7 ADR cells was found to be 1.6.
In the case of “[Fe2Cp2(CO)2(μ‐CO){μ‐CNMe(C6H11)}]X [[2C]CF3SO3]”, in data set [1], the “Solubility in water (qualitative)” value is “less soluble”. Also, in data set [2], the “Log P ow” value is −0.46±0.02. In addition, the IC50 in data set [3] came out at 66.4 ± 8.6 µM; in data set [4], 78.2 ± 9.1 µM; with MCF‐7 ADR cells it was 23.3 ± 4.1 µM. In addition, the “RF=IC50 (resistant cells)/IC50” value in the data set on MCF‐7 ADR cells amounted to 1.3.
As for “[Fe2Cp2(CO)2(μ‐CO){μ‐CNMe(CH2CHCH2)}]X [[3F]CF3SO3]”, the “Solubility in water (qualitative)” value in data set [1] is reported as “soluble”. Further, the “Log P ow” value in data set [2] is listed as −1.01±0.02. The IC50 (in data set [3]; in data set [4]; in the data set with MCF‐7 ADR cells) was more than 100 µM in each case. Moreover, the “IC50±SD (μM)” value in data set [3] and in data set [4] was “ineffective” in each case.
For the substance “[Fe2Cp2(CO)2(μ‐CO){μ‐CNMe(CH2PO3Et2)}]X [[2B]BF4]”, the “Solubility in water (qualitative)” value in data set [1] is listed as “soluble”. The 50% inhibitory concentration (IC50) (in data set [3]; in data set [4]; in the data set with MCF‐7 ADR cells) was more than 100 µM in each case.

For orientation: IC50 means the concentration that gives 50% inhibition.
